Measured values: PubChem BioAssay AID1259407 (Chemical Carcinogenesis Research Information System (CCRIS), 2018)
Activity calls are given as the source filed them. No rule for the calls is given here.

Tested on: CCRIS mutagenicity, Ames/micronucleus/aberration tests
Test: CCRIS mutagenicity studies
[1] = Test System: MOUSE LYMPHOMA, Strain/Indicator: L5178Y (TK+/TK-), Metabolic Activation: NONE, Method: SUSPENSION/PLATE

Measured: mutagenic call

CC(Br)(CCl)CBr (stereo not given)
active: [1] active; positive
inactive: Test System: AMES SALMONELLA TYPHIMURIUM, Strain/Indicator: TA98, Metabolic Activation: NONE, Method: FLASK ASSAY inactive; negative | Test System: AMES SALMONELLA TYPHIMURIUM, Strain/Indicator: TA98, Metabolic Activation: RAT, LIVER, S-9, AROCLOR 1254, Method: FLASK ASSAY inactive; negative | Test System: AMES SALMONELLA TYPHIMURIUM, Strain/Indicator: TA100, Metabolic Activation: NONE, Method: FLASK ASSAY inactive; negative | Test System: AMES SALMONELLA TYPHIMURIUM, Strain/Indicator: TA100, Metabolic Activation: RAT, LIVER, MICROSOMES, PHENOBARBITAL, Method: PREINCUBATION inactive; negative | Test System: AMES SALMONELLA TYPHIMURIUM, Strain/Indicator: TA100, Metabolic Activation: RAT, LIVER, MICROSOMES, Method: PREINCUBATION inactive; negative | Test System: AMES SALMONELLA TYPHIMURIUM, Strain/Indicator: TA100, Metabolic Activation: RAT, LIVER, S-9, AROCLOR 1254, Method: FLASK ASSAY inactive; negative | Test System: AMES SALMONELLA TYPHIMURIUM, Strain/Indicator: TA1535, Metabolic Activation: NONE, Method: FLASK ASSAY inactive; negative | Test System: AMES SALMONELLA TYPHIMURIUM, Strain/Indicator: TA1535, Metabolic Activation: RAT, LIVER, S-9, AROCLOR 1254, Method: FLASK ASSAY inactive; negative | Test System: AMES SALMONELLA TYPHIMURIUM, Strain/Indicator: TA1537, Metabolic Activation: NONE, Method: FLASK ASSAY inactive; negative | Test System: AMES SALMONELLA TYPHIMURIUM, Strain/Indicator: TA1537, Metabolic Activation: RAT, LIVER, S-9, AROCLOR 1254, Method: FLASK ASSAY inactive; negative | Test System: AMES SALMONELLA TYPHIMURIUM, Strain/Indicator: TA1538, Metabolic Activation: NONE, Method: FLASK ASSAY inactive; negative | Test System: AMES SALMONELLA TYPHIMURIUM, Strain/Indicator: TA1538, Metabolic Activation: RAT, LIVER, S-9, AROCLOR 1254, Method: FLASK ASSAY inactive; negative | Test System: MOUSE LYMPHOMA, Strain/Indicator: L5178Y (TK+/TK-), Metabolic Activation: RAT, LIVER, S-9, AROCLOR 1254, Method: SUSPENSION/PLATE inactive; negative

CCCCC/C(C=O)=C/c1ccccc1
inactive: Test System: AMES SALMONELLA TYPHIMURIUM, Strain/Indicator: TA97, Metabolic Activation: NONE, Method: PREINCUBATION inactive; negative | Test System: AMES SALMONELLA TYPHIMURIUM, Strain/Indicator: TA97, Metabolic Activation: RAT, LIVER, S-9, AROCLOR 1254, Method: PREINCUBATION inactive; negative | Test System: AMES SALMONELLA TYPHIMURIUM, Strain/Indicator: TA102, Metabolic Activation: NONE, Method: PREINCUBATION inactive; negative | Test System: AMES SALMONELLA TYPHIMURIUM, Strain/Indicator: TA102, Metabolic Activation: RAT, LIVER, S-9, AROCLOR 1254, Method: PREINCUBATION inactive; negative

CC1(C)S[C@@H]2[C@H](NC(=O)COc3ccccc3)C(=O)N2[C@H]1C(=O)O
inactive: Test System: AMES SALMONELLA TYPHIMURIUM, Strain/Indicator: TA98, Metabolic Activation: HAMSTER, LIVER, S-9, AROCLOR 1254, Method: PREINCUBATION inactive; negative | Test System: AMES SALMONELLA TYPHIMURIUM, Strain/Indicator: TA98, Metabolic Activation: NONE, Method: PREINCUBATION inactive; negative | Test System: AMES SALMONELLA TYPHIMURIUM, Strain/Indicator: TA98, Metabolic Activation: RAT, LIVER, S-9, AROCLOR 1254, Method: PREINCUBATION inactive; negative | Test System: AMES SALMONELLA TYPHIMURIUM, Strain/Indicator: TA100, Metabolic Activation: HAMSTER, LIVER, S-9, AROCLOR 1254, Method: PREINCUBATION inactive; negative | Test System: AMES SALMONELLA TYPHIMURIUM, Strain/Indicator: TA100, Metabolic Activation: NONE, Method: PREINCUBATION inactive; negative | Test System: AMES SALMONELLA TYPHIMURIUM, Strain/Indicator: TA100, Metabolic Activation: RAT, LIVER, S-9, AROCLOR 1254, Method: PREINCUBATION inactive; negative | Test System: AMES SALMONELLA TYPHIMURIUM, Strain/Indicator: TA1535, Metabolic Activation: HAMSTER, LIVER, S-9, AROCLOR 1254, Method: PREINCUBATION inactive; negative | Test System: AMES SALMONELLA TYPHIMURIUM, Strain/Indicator: TA1535, Metabolic Activation: NONE, Method: PREINCUBATION inactive; negative | Test System: AMES SALMONELLA TYPHIMURIUM, Strain/Indicator: TA1535, Metabolic Activation: RAT, LIVER, S-9, AROCLOR 1254, Method: PREINCUBATION inactive; negative | Test System: AMES SALMONELLA TYPHIMURIUM, Strain/Indicator: TA1537, Metabolic Activation: HAMSTER, LIVER, S-9, AROCLOR 1254, Method: PREINCUBATION inactive; negative | Test System: AMES SALMONELLA TYPHIMURIUM, Strain/Indicator: TA1537, Metabolic Activation: NONE, Method: PREINCUBATION inactive; negative | Test System: AMES SALMONELLA TYPHIMURIUM, Strain/Indicator: TA1537, Metabolic Activation: RAT, LIVER, S-9, AROCLOR 1254, Method: PREINCUBATION inactive; negative | [1] inactive; negative
active: Test System: MOUSE LYMPHOMA, Strain/Indicator: L5178Y (TK+/TK-), Metabolic Activation: RAT, LIVER, S-9, Method: SUSPENSION/PLATE active; positive

CC(=O)ON(OCc1ccc([N+](=O)[O-])cc1)C(=O)c1ccccc1
active: Test System: AMES SALMONELLA TYPHIMURIUM, Strain/Indicator: TA100, Metabolic Activation: NONE, Method: STANDARD PLATE active; positive | Test System: AMES SALMONELLA TYPHIMURIUM, Strain/Indicator: TA100, Metabolic Activation: RAT, S-9, AROCLOR, Method: STANDARD PLATE active; positive

NCCCNCCSP(=O)(O)O
inactive: End Point: In vivo micronucleus, Test System: Bone marrow polychromatic erythrocytes, Species: Mouse, Strain/Sex: C57BL/6J/Male, Route: Intraperitoneal inactive; negative (significant increase in pce/nce ratio only when administered before ga
